Measurements reported in ChEMBL document CHEMBL1144680, “Structure-guided design of aminopyrimidine amides as potent, selective inhibitors of lymphocyte specific kinase: synthesis, structure-activity relationships, and inhibition of in vivo T cell activation” (J Med Chem, 2008).
The source made the active and inactive calls. No cut-off for these calls is given here.

Columns and labels:
Mus musculus [1] = assay: Inhibition of anti-CD3-induced IL2 production in BALB/c mouse at 30 mg/kg, po by ELISA relative to control; type: functional
[2] = biological target: Tyrosine-protein kinase Lyn (Homo sapiens, UniProt P07948); assay: Inhibition of Lyn by HTRF assay
[3] = biological target: Proto-oncogene tyrosine-protein kinase Src (Homo sapiens, UniProt P12931); assay: Inhibition of Src by HTRF assay
[4] = Oral bioavailability in Sprague-Dawley rat at 2 mg/kg; type: ADME, organism-based; conditions: in vivo
[5] = Inhibition of Aurora2 by HTRF assay
[6] = biological target: Tyrosine-protein kinase SYK (Homo sapiens, UniProt P43405); assay: Inhibition of Syk by HTRF assay
[7] = Half life in Sprague-Dawley rat at 0.5 mg/kg, iv; type: ADME, organism-based; parameters: dose 0.5 mg/kg, route intravenous; conditions: in vivo
[8] = biological target: Serine/threonine-protein kinase PAK 2 (Homo sapiens, UniProt Q13177); assay: Inhibition of PAK2 by HTRF assay
[9] = biological target: Tyrosine-protein kinase Fyn (Homo sapiens, UniProt P06241); assay: Inhibition of Fyn by HTRF assay
Angiopoietin-1 receptor = Angiopoietin-1 receptor (Homo sapiens, UniProt Q02763); assay: Inhibition of Tie2 by HTRF assay
[10] = Volume of distribution at steady state in Sprague-Dawley rat at 0.5 mg/kg, iv; type: ADME, organism-based; parameters: dose 0.5 mg/kg, route intravenous; conditions: in vivo, read-out: Vdss
[11] = Inhibition of PKAalpha by HTRF assay
[12] = biological target: Tyrosine-protein kinase Lck (Homo sapiens, UniProt P06239)
Description: Inhibition of Lck by HTRF assay

[13] = biological target: Vascular endothelial growth factor receptor 2 (Homo sapiens, UniProt P35968); assay: Inhibition of KDR by HTRF assay
Chain of Vascular endothelial growth factor receptor 2 (P35968 whole entry): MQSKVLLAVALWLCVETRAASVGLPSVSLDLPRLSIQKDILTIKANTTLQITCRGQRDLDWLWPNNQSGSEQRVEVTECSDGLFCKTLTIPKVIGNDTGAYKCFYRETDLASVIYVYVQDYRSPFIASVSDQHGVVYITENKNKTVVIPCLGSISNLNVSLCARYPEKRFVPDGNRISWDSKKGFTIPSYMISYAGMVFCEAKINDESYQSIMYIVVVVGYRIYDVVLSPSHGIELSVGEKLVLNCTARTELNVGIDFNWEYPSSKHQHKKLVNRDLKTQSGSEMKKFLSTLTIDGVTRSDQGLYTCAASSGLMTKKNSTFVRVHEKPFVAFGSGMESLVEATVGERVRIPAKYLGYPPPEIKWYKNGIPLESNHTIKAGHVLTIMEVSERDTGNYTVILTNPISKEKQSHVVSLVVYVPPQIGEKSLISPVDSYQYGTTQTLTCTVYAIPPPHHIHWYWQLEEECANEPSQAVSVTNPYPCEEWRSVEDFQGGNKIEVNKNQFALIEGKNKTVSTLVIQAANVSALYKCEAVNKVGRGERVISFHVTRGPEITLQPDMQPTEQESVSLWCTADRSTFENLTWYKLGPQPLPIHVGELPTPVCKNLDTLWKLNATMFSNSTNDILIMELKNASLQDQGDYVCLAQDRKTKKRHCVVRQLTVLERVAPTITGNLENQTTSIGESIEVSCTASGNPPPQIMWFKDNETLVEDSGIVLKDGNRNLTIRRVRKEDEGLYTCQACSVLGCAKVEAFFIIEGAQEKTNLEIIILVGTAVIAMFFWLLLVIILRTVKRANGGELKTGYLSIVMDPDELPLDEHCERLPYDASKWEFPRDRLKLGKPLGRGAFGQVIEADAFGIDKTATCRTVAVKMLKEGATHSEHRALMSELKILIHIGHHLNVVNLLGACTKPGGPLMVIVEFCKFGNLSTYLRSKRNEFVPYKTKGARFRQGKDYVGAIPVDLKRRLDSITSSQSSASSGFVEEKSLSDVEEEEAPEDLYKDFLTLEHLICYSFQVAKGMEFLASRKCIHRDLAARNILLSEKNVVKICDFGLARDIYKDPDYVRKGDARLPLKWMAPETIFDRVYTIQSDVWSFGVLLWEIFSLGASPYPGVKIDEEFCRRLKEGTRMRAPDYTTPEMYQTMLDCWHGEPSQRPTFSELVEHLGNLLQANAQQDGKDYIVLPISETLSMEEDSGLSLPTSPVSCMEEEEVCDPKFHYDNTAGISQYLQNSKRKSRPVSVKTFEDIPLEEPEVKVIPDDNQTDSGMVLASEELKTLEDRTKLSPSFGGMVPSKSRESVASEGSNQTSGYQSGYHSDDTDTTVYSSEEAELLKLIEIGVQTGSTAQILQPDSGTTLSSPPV

[14] = biological target: Tyrosine-protein kinase ABL1 (Homo sapiens, UniProt P00519); assay: Inhibition of Abl by HTRF assay
Mus musculus [15] = assay: Inhibition of anti-CD3-induced IL2 production in BALB/c mouse at 100 mg/kg, po by ELISA relative to control; type: functional
[16] = Protein binding in rat plasma; type: ADME, cell-free; conditions: read-out: PB (converted)
[17] = biological target: Mitogen-activated protein kinase 3 (Homo sapiens, UniProt P27361); assay: Inhibition of ERK1 by HTRF assay
Chain of Mitogen-activated protein kinase 3 (P27361 whole entry): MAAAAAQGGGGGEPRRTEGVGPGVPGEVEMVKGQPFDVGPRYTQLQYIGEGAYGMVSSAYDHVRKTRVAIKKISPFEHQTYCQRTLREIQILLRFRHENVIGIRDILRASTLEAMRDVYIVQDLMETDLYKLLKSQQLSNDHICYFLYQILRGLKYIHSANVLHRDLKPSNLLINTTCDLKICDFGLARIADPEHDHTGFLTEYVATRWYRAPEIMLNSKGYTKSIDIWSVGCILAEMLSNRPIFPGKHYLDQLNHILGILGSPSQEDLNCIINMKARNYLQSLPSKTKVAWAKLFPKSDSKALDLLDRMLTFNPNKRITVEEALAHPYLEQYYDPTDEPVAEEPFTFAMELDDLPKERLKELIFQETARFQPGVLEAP

[18] = Inhibition of PKBalpha by HTRF assay
Mus musculus [19] = assay: Inhibition of anti-CD3-induced IL2 production in orally dosed BALB/c mouse by ELISA; type: functional; conditions: po
[20] = biological target: Mitogen-activated protein kinase 14 (Homo sapiens, UniProt Q16539); assay: Inhibition of p38alpha by HTRF assay
Chain of Mitogen-activated protein kinase 14 (Q16539 whole entry): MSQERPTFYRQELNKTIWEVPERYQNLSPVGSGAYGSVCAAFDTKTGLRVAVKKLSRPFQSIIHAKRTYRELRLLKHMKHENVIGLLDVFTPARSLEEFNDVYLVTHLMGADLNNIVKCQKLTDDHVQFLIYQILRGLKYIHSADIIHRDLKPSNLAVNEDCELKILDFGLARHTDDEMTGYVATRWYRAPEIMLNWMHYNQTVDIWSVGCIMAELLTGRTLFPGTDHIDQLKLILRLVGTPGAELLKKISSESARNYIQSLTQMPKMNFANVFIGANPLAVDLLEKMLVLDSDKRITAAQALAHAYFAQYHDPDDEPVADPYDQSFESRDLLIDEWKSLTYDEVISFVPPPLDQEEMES

Jurkat = assay: Inhibition of IL2 production in human Jurkat cells stimulated with phorbol 12-myristyl 13-acetate in presence of calcium ionophore; type: functional, cell-based
[21] = Protein binding in mouse plasma; type: ADME, cell-free; conditions: read-out: PB (converted)
Mus musculus [22] = assay: Plasma concentration in BALB/c mouse at 100 mg/kg, po; type: ADME, organism-based; parameters: dose 100 mg/kg, route oral; conditions: in vivo
[23] = Cmax in Sprague-Dawley rat at 2 mg/kg, po; type: ADME, organism-based; parameters: dose 2 mg/kg, route oral; conditions: in vivo
[24] = biological target: Mitogen-activated protein kinase 9 (Homo sapiens, UniProt P45984); assay: Inhibition of JNK2 by HTRF assay
[25] = Tmax in Sprague-Dawley rat at 2 mg/kg; type: ADME, organism-based; parameters: dose 2 mg/kg; conditions: in vivo
[26] = Inhibition of Aurora1 by HTRF assay
[27] = biological target: T1, Tyrosine-protein kinase JAK3 (Homo sapiens, UniProt P52333); assay: Inhibition of Jak3 by HTRF assay
T1 sequence (P52333 whole entry): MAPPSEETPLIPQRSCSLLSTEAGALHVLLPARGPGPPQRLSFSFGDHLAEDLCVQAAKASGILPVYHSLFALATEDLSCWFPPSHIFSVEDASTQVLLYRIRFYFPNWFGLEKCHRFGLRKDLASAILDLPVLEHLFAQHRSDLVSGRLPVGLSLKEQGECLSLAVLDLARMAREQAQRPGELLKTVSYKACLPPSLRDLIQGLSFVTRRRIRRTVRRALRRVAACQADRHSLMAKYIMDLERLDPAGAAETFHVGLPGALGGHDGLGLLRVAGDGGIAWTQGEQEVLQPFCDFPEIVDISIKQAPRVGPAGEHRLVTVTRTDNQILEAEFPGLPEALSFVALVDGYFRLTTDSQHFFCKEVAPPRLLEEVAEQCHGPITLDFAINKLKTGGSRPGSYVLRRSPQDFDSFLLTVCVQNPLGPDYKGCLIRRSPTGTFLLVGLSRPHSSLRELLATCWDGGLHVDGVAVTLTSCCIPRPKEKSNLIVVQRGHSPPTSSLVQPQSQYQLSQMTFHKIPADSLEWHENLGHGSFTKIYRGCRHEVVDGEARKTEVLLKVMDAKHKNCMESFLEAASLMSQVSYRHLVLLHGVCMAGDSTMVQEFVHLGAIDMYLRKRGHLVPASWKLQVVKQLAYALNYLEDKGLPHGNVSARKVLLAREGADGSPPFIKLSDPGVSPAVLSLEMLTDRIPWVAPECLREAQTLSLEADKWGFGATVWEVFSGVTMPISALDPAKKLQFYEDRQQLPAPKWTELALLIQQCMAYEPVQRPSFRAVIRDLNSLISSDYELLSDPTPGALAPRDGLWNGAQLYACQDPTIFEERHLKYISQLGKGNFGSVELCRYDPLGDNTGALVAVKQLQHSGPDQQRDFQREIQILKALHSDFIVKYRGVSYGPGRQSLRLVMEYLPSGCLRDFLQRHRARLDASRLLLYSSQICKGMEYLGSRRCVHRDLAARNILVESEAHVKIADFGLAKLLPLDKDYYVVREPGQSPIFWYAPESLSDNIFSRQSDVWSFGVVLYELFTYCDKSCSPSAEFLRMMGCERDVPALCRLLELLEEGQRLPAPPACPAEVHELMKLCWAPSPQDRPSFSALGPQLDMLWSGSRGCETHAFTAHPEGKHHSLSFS

Plasma = assay: Unbound EC50 of ligand in mouse plasma
Lymphocyte = assay: Inhibition of T cell activation in human peripheral blood lymphocytes by mixed lymphocyte reaction; type: functional, cell-based
Mus musculus [28] = assay: Inhibition of anti-CD3-induced IL2 production in BALB/c mouse at 10 mg/kg, po by ELISA relative to control; type: functional
[29] = biological target: Tyrosine-protein kinase ITK/TSK (Homo sapiens, UniProt Q08881); assay: Inhibition of Itk by HTRF assay
[30] = Inhibition of IRK by HTRF assay
[31] = biological target: Macrophage-stimulating protein receptor (Homo sapiens, UniProt Q04912); assay: Inhibition of RON by HTRF assay
Chain of Macrophage-stimulating protein receptor (Q04912 25-304 limits assumed): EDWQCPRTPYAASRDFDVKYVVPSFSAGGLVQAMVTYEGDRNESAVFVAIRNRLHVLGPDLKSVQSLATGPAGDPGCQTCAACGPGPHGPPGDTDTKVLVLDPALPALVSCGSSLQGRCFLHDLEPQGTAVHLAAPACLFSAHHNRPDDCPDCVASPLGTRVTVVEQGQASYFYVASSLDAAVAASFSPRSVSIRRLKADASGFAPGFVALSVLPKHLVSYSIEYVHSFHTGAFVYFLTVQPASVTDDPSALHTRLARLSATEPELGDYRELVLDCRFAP
Chain of Macrophage-stimulating protein receptor (Q04912 310-1400 limits assumed): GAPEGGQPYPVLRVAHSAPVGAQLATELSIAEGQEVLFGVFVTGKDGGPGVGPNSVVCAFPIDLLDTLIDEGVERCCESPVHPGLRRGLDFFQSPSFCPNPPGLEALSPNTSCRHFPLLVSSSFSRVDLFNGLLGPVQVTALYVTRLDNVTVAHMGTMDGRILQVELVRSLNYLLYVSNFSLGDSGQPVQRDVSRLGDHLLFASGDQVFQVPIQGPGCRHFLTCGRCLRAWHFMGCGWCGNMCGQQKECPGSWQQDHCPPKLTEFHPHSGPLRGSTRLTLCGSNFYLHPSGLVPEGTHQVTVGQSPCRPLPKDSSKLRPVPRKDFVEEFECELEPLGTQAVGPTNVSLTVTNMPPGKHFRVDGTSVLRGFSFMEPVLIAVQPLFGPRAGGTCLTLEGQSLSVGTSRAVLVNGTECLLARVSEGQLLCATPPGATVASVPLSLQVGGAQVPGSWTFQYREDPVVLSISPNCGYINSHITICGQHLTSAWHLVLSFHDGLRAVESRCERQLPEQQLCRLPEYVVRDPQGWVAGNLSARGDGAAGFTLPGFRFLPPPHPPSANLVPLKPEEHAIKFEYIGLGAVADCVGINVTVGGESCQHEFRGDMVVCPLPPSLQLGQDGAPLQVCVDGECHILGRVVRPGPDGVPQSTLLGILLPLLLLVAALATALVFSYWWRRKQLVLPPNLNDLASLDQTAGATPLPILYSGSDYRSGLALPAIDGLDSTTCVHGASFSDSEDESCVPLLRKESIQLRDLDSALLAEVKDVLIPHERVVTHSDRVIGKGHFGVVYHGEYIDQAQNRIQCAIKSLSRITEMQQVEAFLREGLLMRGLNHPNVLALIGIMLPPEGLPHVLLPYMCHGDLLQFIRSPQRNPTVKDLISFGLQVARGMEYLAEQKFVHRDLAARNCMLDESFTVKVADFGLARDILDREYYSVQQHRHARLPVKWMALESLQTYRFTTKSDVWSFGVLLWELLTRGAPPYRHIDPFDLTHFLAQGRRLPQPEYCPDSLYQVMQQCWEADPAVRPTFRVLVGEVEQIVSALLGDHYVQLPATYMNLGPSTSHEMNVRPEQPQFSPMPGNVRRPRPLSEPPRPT

Mus musculus [32] = assay: Plasma concentration in BALB/c mouse at 10 mg/kg, po; type: ADME, organism-based; parameters: dose 10 mg/kg, route oral; conditions: in vivo
Mus musculus [33] = species: Mus musculus; assay: Inhibition of anti-CD3-induced IL2 production in BALB/c mouse; type: functional
Blood [34] = assay: Inhibition of LPS-induced TNFalpha production in human whole blood by ELISA; type: functional, tissue-based
[35] = biological target: Serine/threonine-protein kinase pim-1 (Homo sapiens, UniProt P11309); assay: Inhibition of PIM1 by HTRF assay
[36] = biological target: Ribosomal protein S6 kinase beta-1 (Homo sapiens, UniProt P23443); assay: Inhibition of P70S6K by HTRF assay
Chain of Ribosomal protein S6 kinase beta-1 (P23443 whole entry): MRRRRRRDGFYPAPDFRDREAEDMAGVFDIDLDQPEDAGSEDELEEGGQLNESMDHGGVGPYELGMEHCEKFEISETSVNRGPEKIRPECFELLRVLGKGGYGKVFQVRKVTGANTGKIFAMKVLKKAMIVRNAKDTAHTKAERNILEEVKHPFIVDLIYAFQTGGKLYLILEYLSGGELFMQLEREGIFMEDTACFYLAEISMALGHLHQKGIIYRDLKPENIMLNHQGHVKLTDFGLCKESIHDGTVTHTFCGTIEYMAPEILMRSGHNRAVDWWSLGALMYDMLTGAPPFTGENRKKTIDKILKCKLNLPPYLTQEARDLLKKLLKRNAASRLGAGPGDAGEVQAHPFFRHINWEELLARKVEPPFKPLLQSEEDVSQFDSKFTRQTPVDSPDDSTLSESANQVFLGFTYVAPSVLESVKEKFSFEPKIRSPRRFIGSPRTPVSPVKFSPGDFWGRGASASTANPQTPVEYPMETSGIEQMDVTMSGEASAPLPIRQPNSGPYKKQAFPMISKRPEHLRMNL

[37] = Clearance in Sprague-Dawley rat at 0.5 mg/kg, iv; type: ADME, organism-based; parameters: dose 0.5 mg/kg, route intravenous; conditions: in vivo
[38] = biological target: Ribosomal protein S6 kinase alpha-5 (Homo sapiens, UniProt O75582); assay: Inhibition of MSK1 by HTRF assay
Blood [39] = assay: Inhibition of anti-CD3-induced IL2 production in human whole blood by ELISA; type: functional, tissue-based
[40] = AUC (0 to infinity) in Sprague-Dawley rat at 2 mg/kg, po; type: ADME, organism-based; parameters: time infinity, dose 2 mg/kg, route oral; conditions: plasma
[41] = biological target: Macrophage colony-stimulating factor 1 receptor (Homo sapiens, UniProt P07333); assay: Inhibition of cFMS by HTRF assay
[42] = biological target: High affinity nerve growth factor receptor (Homo sapiens, UniProt P04629); assay: Inhibition of TrkA by HTRF assay
Chain of High affinity nerve growth factor receptor (P04629 whole entry): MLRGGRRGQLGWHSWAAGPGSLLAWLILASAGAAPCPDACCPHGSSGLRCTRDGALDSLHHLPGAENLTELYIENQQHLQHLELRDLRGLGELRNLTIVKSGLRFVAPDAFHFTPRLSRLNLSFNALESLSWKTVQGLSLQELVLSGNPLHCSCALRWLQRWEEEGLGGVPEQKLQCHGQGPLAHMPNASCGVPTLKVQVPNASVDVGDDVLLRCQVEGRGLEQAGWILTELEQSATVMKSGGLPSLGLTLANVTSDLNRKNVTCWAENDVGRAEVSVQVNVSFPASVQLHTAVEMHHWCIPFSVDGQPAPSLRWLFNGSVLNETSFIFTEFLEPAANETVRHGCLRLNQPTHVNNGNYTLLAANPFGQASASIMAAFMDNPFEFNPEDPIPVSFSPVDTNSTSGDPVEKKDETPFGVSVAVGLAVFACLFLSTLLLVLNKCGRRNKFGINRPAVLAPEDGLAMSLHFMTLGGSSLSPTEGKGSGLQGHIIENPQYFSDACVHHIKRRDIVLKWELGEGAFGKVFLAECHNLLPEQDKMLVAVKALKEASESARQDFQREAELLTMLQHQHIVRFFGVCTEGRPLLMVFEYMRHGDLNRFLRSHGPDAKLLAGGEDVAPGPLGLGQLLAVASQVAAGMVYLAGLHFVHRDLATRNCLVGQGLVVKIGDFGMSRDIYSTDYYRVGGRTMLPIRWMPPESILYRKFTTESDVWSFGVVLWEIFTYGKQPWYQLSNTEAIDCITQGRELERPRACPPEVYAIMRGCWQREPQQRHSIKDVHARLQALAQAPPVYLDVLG

Mus musculus [43] = assay: Plasma concentration in BALB/c mouse at 30 mg/kg, po; type: ADME, organism-based; parameters: dose 30 mg/kg, route oral; conditions: in vivo

`Cc1ccc(NC(=O)c2cccc(C(F)(F)F)c2)cc1C(=O)Nc1cnc(Nc2ccc(N3CCN(C)CC3)cc2)nc1` gave an inhibition in vivo at 30 mg/kg (Mus musculus [1]) of 89%, an IC50 [2] of 0.9 nM and an IC50 [3] of 3 nM. For the same compound, the bioavailability [4] was 22%, the IC50 [5] was > 25000 nM and the IC50 [6] was > 5000 nM. The half-life [7] was 3.2 h, the IC50 [8] was > 25000 nM and the IC50 [9] was 3 nM. The IC50 (Angiopoietin-1 receptor) was 9950 nM, the Vd [10] was 3.29 L/kg and the IC50 [11] was > 85000 nM. It also gave an IC50 [12] of 0.6 nM, an IC50 [13] of 24 nM and an IC50 [14] of 2 nM. The inhibition in vivo at 100 mg/kg (Mus musculus [15]) was 91%, the fraction unbound [16] was 0.006 and the IC50 [17] was > 100000 nM. The IC50 [18] was > 100000 nM, the ED50 (Mus musculus [19]) was 9.4 mg/kg and the IC50 [20] was 5 nM. The IC50 (Jurkat) was > 20000 nM, the fraction unbound [21] was 0.022 and the concentration (Mus musculus [22]) was 1540 nM. For the same compound, the Cmax [23] was 49 ng/mL, the IC50 [24] was 4290 nM and the Tmax [25] was 4.67 h. For the same compound, the IC50 [26] was > 8300 nM, the IC50 [27] was > 25000 nM and the EC50 unbound (Plasma) was 4 nM. The IC50 (Lymphocyte) was 11 nM, the inhibition in vivo at 10 mg/kg (Mus musculus [28]) was 53% and the IC50 [29] was > 25000 nM. For the same compound, the IC50 [30] was > 5000 nM, the IC50 [31] was > 25000 nM and the concentration (Mus musculus [32]) was 176 nM. The Activity (Mus musculus [33]) was “Active”, the IC50 (Blood [34]) was 718 nM and the IC50 [35] was > 30000 nM. For the same compound, the IC50 [36] was > 100000 nM, the clearance [37] was 17.3 mL/min/kg and the IC50 [38] was > 100000 nM. For the same compound, the IC50 (Blood [39]) was 7 nM, the AUC(0-inf) [40] was 419 ng·h/mL and the IC50 [41] was 40 nM. The IC50 [42] was > 5000 nM and the concentration (Mus musculus [43]) was 434 nM.
